For 17 compounds, IC50 results are on record in patent US20240050577A1, “CDK INHIBITORS AND PHARMACEUTICAL USES THEREOF” (RISEN (SUZHOU) PHARMA TECH CO., LTD., priority 2022, published 2024).

The test system of this test is OVCAR3 cells. In words: Cell proliferation study (Cell Titer Glo, 72 h). It counts as cell-based. To be noted: Homo sapiens, OVCAR-3, luminescence, read-out: IC50, inhibitory effect on cellular proliferation. As to the method:
OVCAR3 (Cobioer, CBP60294) cell line in logarithmic growth phase was used for these experiments. The cell density was adjusted to 1.1×10^4/mL and the cells were inoculated into a 96-well cell culture plate (Corning, 3599), 95 μL per well (the number of cells per well was 1×10^3). The culture plate was placed in an incubator, with 5% carbon dioxide, at 37° C. and incubated overnight. On the next day, a 10 mM stock solution of test compound was prepared in DMSO (Sigma, RNBF5902). After gradient dilution, a series of working solutions with different concentrations of test compound was prepared using complete medium. Working solution was added into the corresponding wells of the orifice plate, and the plate was placed in a 5% carbon dioxide incubator and cultivated at 37° C. for 72 h, and then removed from the incubator. To each well was added 50 μL Cell Tier Glo (Promega, G7573), and the plate was incubated at room temperature for 10 min, followed by luminescence detection with an enzyme marker. The inhibition curve was obtained with GraphPad 7.0 software using four-parameter equation.
On the technique in general: ATP-based viability assays read luminescence as a measure of living cells.
Consider `Cc1nc2c(F)cc(-c3nc(NC4CCN(S(=O)(=O)C5CCN(CC6CCC7(CC6)CN(c6cc8c(cc6F)C(=O)N(C6CCC(=O)NC6=O)C8=O)C7)CC5)CC4)ncc3F)cc2n1C(C)C` (centres unmarked) [Compound 97], for which the IC50 was 101 to 1000 nM.

With `C[C@@]1(O)CCC[C@H]1n1c(=O)ccc2cnc(Nc3ccc(S(=O)(=O)C4CCN(CC5CCN(c6cc7c(cc6F)C(=O)N(C6CCC(=O)NC6=O)C7=O)CC5)CC4)cc3)nc21` (some centres unmarked) [Compound 23], the IC50 was above 10000 nM.

For the compound `Cc1nc2c(F)cc(-c3nc(NC4CCN(S(=O)(=O)C5CCN(CC6CC7CCC(C6)N7C6CN(c7cc8c(cc7F)C(=O)N(C7CCC(=O)NC7=O)C8=O)C6)CC5)CC4)ncc3F)cc2n1C(C)C` (centres unmarked) [Compound 101], the IC50 is below 100 nM.

Take `C[C@@]1(O)CCC[C@H]1n1c(=O)ccc2cnc(Nc3ccc(S(=O)(=O)C4CCN(C5CN(C6CCN(c7cc8c(cc7F)C(=O)N(C7CCC(=O)NC7=O)C8=O)CC6)C5)CC4)cc3)nc21` (some centres unmarked) [Compound 59]: the IC50 fell in the range of 1000 to 5000 nM.

`Cc1nc2c(F)cc(-c3nc(NC4CCN(S(=O)(=O)C5CCN(C6CC7(CCN(c8cc9c(cc8F)C(=O)N(C8CCC(=O)NC8=O)C9=O)CC7)C6)CC5)CC4)ncc3F)cc2n1C(C)C` (centres unmarked) [Compound 75]: the IC50 was in the range of 1000 to 5000 nM.

On to `CC(C)N1CCOc2c(F)cc(-c3nc(NC4CCN(S(=O)(=O)C5CCN(C6CC7(CCN(c8cc9c(cc8F)C(=O)N(C8CCC(=O)NC8=O)C9=O)CC7)C6)CC5)CC4)ncc3F)cc21` (centres unmarked) [Compound 51], for which the IC50 is above 10000 nM.

For the compound `Cc1nc2c(F)cc(-c3nc(Nc4ccc(S(=O)(=O)N5CCC6(CCN(CC7CCN(c8cc9c(cc8F)C(=O)N(C8CCC(=O)NC8=O)C9=O)CC7)CC6)CC5)cc4)ncc3F)cc2n1C(C)C` (centres unmarked) [Compound 106], the IC50 lay within 1000 to 5000 nM.

In the case of `CC(C)N1CCOc2c(F)cc(-c3nc(Nc4ccc(C5CCN(CCCCCCCCCOc6cccc7c6C(=O)N(C6CCC(=O)NC6=O)C7=O)CC5)cn4)ncc3F)cc21` (centres unmarked) [Compound 1], the IC50 was above 10000 nM.

With `C[C@@]1(O)CCC[C@H]1n1c(=O)ccc2cnc(NC3CCN(S(=O)(=O)C4CCN(C(=O)CC5CCN(c6cc7c(cc6F)C(=O)N(C6CCC(=O)NC6=O)C7=O)CC5)CC4)CC3)nc21` (some centres unmarked) [Compound 62], the IC50 lay within 1000 to 5000 nM.

As to `Cc1nc2c(F)cc(-c3nc(NC4CCN(S(=O)(=O)C5CN(CC6CCN(c7cc8c(cc7F)C(=O)N(C7CCC(=O)NC7=O)C8=O)CC6)C5)CC4)ncc3F)cc2n1C(C)C` (centres unmarked) [Compound 100], the IC50 is 101 to 1000 nM.

For `Cc1nc2c(F)cc(-c3nc(Nc4ccc(S(=O)(=O)NCCOCCNc5cccc6c5C(=O)N(C5CCC(=O)NC5=O)C6=O)cc4)ncc3F)cc2n1C(C)C` (centres unmarked) [Compound 47], the IC50 was 1000 to 5000 nM.

Consider `Cc1nc2c(F)cc(-c3nc(Nc4ccc(NS(=O)(=O)CCNC(=O)CO[C@@H]5C[C@H](C)CC[C@H]5C(C)C)cc4)ncc3F)cc2n1C(C)C` (racemic) [Compound 26], for which the IC50 is 1000 to 5000 nM.

As to `CC(C)N1CCOc2c(F)cc(-c3nc(Nc4ccc(S(N)(=O)=O)cc4)ncc3F)cc21` [Compound 31], the IC50 was in the range of 101 to 1000 nM.

Turning to `Cc1nc2c(F)cc(-c3nc(Nc4ccc(S(=O)(=O)N5CCC6(CCN(C(=O)COc7cccc8c7C(=O)N(C7CCC(=O)NC7=O)C8=O)CC6)CC5)cc4)ncc3F)cc2n1C(C)C` (centres unmarked) [Compound 39], the IC50 is 1000 to 5000 nM.

For `C[C@@]1(O)CCC[C@H]1n1c(=O)ccc2cnc(Nc3ccc(S(=O)(=O)C4CCN(C5CC6(CCN(c7cc8c(cc7F)C(=O)N(C7CCC(=O)NC7=O)C8=O)CC6)C5)CC4)cc3)nc21` (some centres unmarked) [Compound 22], the IC50 is above 10000 nM.

For `C[C@@]1(O)CCC[C@H]1n1c(=O)ccc2cnc(NC3CCN(S(=O)(=O)C4CCN(C5CCC6(CC5)CCN(c5cc7c(cc5F)C(=O)N(C5CCC(=O)NC5=O)C7=O)CC6)CC4)CC3)nc21` (some centres unmarked) [Compound 89], the IC50 lay in the range of 101 to 1000 nM.

On to `C[C@@]1(O)CCC[C@H]1n1c(=O)ccc2cnc(NC3CCN(S(=O)(=O)C4CCN(C5CC6(C5)CN(C(=O)C5CCN(c7cc8c(cc7F)C(=O)N(C7CCC(=O)NC7=O)C8=O)CC5)C6)CC4)CC3)nc21` (some centres unmarked) [Compound 85], for which the IC50 lay within 1000 to 5000 nM.
